SMILES strings stand for the structures.

The target in one assay is T1, FXR ligand binding domain (GST-FXR LBD fusion protein, human FXR aa 193-473) (Homo sapiens, UniProt Q96RI1).
T1 construct: fused on or other part: Glutathione-S-transferase (GST) fused N-terminally to the FXR LBD, used to capture the protein on glutathione SPA beads
T1 sequence (Q96RI1 211-486 limits assumed): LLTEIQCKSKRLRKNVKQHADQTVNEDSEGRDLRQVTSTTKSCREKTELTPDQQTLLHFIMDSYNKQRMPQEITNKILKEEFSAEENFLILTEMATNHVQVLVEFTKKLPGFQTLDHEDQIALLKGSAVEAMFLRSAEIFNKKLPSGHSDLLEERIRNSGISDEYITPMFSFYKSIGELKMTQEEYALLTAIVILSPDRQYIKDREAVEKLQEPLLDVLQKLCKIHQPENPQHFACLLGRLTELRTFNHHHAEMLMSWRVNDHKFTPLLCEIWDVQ
The experiment in a line: Radioligand binding assay (scintillation proximity, radioligand displacement). Conditions: 40 nM GST-FXR LBD on SPA beads, test compound 6×10^−9 M to 2.5×10^−5 M, read-out: h-IC50 Binding. The essentials:
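40 nM GST-FXR LBD, E. coli-expressed, bound to glutathione yttrium silicate SPA beads in 50 mM Hepes pH 7.4, 10 mM NaCl, 5 mM MgCl2, 0.01% CHAPS. Test compounds displace radioligand (e.g. 20 nM benzimidazolyl-acetamide ligand); bound ligand measured by scintillation proximity counting.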
What is called IC50 is the concentration that gives 50% inhibition. Take `COc1ccc(-c2nc3cc(F)c(F)cc3n2C(COc2ccc(C(=O)O)cc2F)C2CCCCC2)c(OC)n1` (stereo not shown) [Example 46, 4-{2-Cyclohexyl-2-[2-(2,6-dimethoxy-pyridin-3-yl)-5,6-difluoro-benzoimidazol-1-yl]-ethoxy}-3-fluoro-benzoic acid]: the IC50 was 100 nM.

With `O=C(O)C1(Oc2ccc(OCC(C3CCCCC3)n3c(-c4ccc(Cl)cc4)nc4cc(F)c(F)cc43)nc2)CC1` (stereo not shown) [Example 50, 1-(6-{2-[2-(4-Chloro-phenyl)-5,6-difluoro-benzoimidazol-1-yl]-2-cyclohexyl-ethoxy}-pyridin-3-yloxy)-cyclopropanecarboxylic acid], the IC50 was determined as 100 nM.

With `Cc1cc(C(=O)O)cc(C)c1OCC(C1CCCCC1)n1c(-c2ccc(Cl)cc2)nc2cc(F)c(F)cc21` (stereo not shown) [Example 53, 4-{2-[2-(4-Chloro-phenyl)-5,6-difluoro-benzoimidazol-1-yl]-2-cyclohexyl-ethoxy}-3,5-dimethyl-benzoic acid], the IC50 came to 30 nM.

For the compound `Fc1cc2nc(-c3ccc(Cl)cc3)n(C(COc3ccc(-c4nnn[nH]4)cn3)C3CCCCC3)c2cc1F` (stereo not shown) [Example 56, 2-(4-Chloro-phenyl)-1-{1-cyclohexyl-2-[5-(1H-tetrazol-5-yl)-pyridin-2-yloxy]-ethyl}-5,6-difluoro-1H-benzoimidazole], the IC50 was determined as 50 nM.

With `CC(C)(OCc1ccc(C(=O)O)cc1)C(C1CCCCC1)n1c(-c2ccc(Cl)cc2)nc2cc(F)c(F)cc21` (stereo not shown) [Example 57, 4-{2-[2-(4-Chloro-phenyl)-5,6-difluoro-benzoimidazol-1-yl]-2-cyclohexyl-1,1-dimethyl-ethoxymethyl}-benzoic acid], the IC50 is 100 nM.

For the compound `O=C(O)c1ccc(COCC(C2CCCCC2)n2c(-c3ccc(Cl)cc3)nc3cc(F)c(F)cc32)cc1` (stereo not shown) [Example 58, 4-{2-[2-(4-Chloro-phenyl)-5,6-difluoro-benzoimidazol-1-yl]-2-cyclohexyl-ethoxymethyl}-benzoic acid], the IC50 was 100 nM.

For the compound `O=C(O)c1ccc(COCC(C2CCCCC2)n2c(-c3ccc(Cl)cc3)nc3cc(F)c(F)cc32)c(F)c1` (stereo not shown) [Example 59, 4-{2-[2-(4-Chloro-phenyl)-5,6-difluoro-benzoimidazol-1-yl]-2-cyclohexyl-ethoxymethyl}-3-fluoro-benzoic], the IC50 was found to be 60 nM.

Turning to `COc1cc(C(=O)O)ccc1COCC(C1CCCCC1)n1c(-c2ccc(Cl)cc2)nc2cc(F)c(F)cc21` (stereo not shown) [Example 60, 4-{2-[2-(4-Chloro-phenyl)-5,6-difluoro-benzoimidazol-1-yl]-2-cyclohexyl-ethoxymethyl}-3-methoxy-benzoic acid], the IC50 amounted to 500 nM.

On to `Cc1cc(OCC(C2CCCCC2)n2c(-c3ccc(Cl)cc3)nc3cc(F)c(F)cc32)cc(C)c1C(=O)O` (stereo not shown) [Example 61, 4-{2-[2-(4-Chloro-phenyl)-5,6-difluoro-benzoimidazol-1-yl]-2-cyclohexyl-ethoxy}-2,6-dimethyl-benzoic acid], for which the half-maximal inhibitory concentration (IC50) was determined as 1400 nM.

In the case of `Fc1cc2nc(-c3ccc(Cl)cc3)n(C(COc3ccc(-c4nnn[nH]4)cc3F)C3CCCCC3)c2cc1F` (stereo not shown) [Example 66, 2-(4-Chloro-phenyl)-1-{1-cyclohexyl-2-[2-fluoro-4-(1H-tetrazol-5-yl)-phenoxy]-ethyl}-5,6-difluoro-1H-benzoimidazole], the half-maximal inhibitory concentration (IC50) is 10 nM.

With `O=C(O)c1ccc(COCC(C2CCCCC2)n2c(-c3ccc(Cl)cc3)nc3cc(F)c(F)cc32)nc1` (stereo not shown) [Example 67, 6-{2-[2-(4-Chloro-phenyl)-5,6-difluoro-benzoimidazol-1-yl]-2-cyclohexyl-ethoxymethyl}-nicotinic acid], the IC50 was determined as 2500 nM.

Turning to `Cc1cc(-c2nnn[nH]2)cc(C)c1OCC(C1CCCCC1)n1c(-c2ccc(Cl)cc2)nc2cc(F)c(F)cc21` (stereo not shown) [Example 70, 2-(4-Chloro-phenyl)-1-{1-cyclohexyl-2-[2,6-dimethyl-4-(1H-tetrazol-5-yl)-phenoxy]-ethyl}-5,6-difluoro-1H-benzoimidazole], the half-inhibitory concentration (IC50) was 10 nM.

For the compound `COc1ccc(-c2nc3cc(F)c(F)cc3n2C(COc2ccc(C(=O)O)cn2)C2CCCCC2)c(OC)n1` (stereo not shown) [Example 73, 6-{2-Cyclohexyl-2-[2-(2,6-dimethoxy-pyridin-3-yl)-5,6-difluoro-benzoimidazol-1-yl]-ethoxy}-nicotinic acid], the concentration for half-maximal inhibition (IC50) came to 100 nM.

`O=C(O)c1cc(F)c(OCC(C2CCCCC2)n2c(-c3ccc(Cl)cc3)nc3cc(F)c(F)cc32)c(Cl)c1` (stereo not shown) [Example 76, 3-Chloro-4-{2-[2-(4-chloro-phenyl)-5,6-difluoro-benzoimidazol-1-yl]-2-cyclohexyl-ethoxy}-5-fluoro-benzoic acid]: the half-inhibitory concentration (IC50) came to 4 nM.

As for `CC(OCC(C1CCCCC1)n1c(-c2ccc(Cl)cc2)nc2cc(F)c(F)cc21)c1ccc(C(=O)O)cc1` (stereo not shown) [Example 79, 4-(1-{2-[2-(4-Chloro-phenyl)-5,6-difluoro-benzoimidazol-1-yl]-2-cyclohexyl-ethoxy}-ethyl)-benzoic acid], the concentration for half-maximal inhibition (IC50) amounted to 600 nM.

With `COc1ccc(-c2nc3cc(F)c(F)cc3n2C(COc2c(C)cc(C(=O)O)cc2C)C2CCCCC2)c(OC)n1` (stereo not shown) [Example 82, 4-{2-Cyclohexyl-2-[2-(2,6-dimethoxy-pyridin-3-yl)-5,6-difluoro-benzoimidazol-1-yl]-ethoxy}-3,5-dimethyl-benzoic acid], the IC50 amounted to 1 nM.

For `O=C(O)c1cc(F)c(OCC(C2CCCCC2)n2c(-c3ccc(Cl)cc3)nc3cc(F)c(F)cc32)c(F)c1` (stereo not shown) [Example 85, 4-{2-[2-(4-Chloro-phenyl)-5,6-difluoro-benzoimidazol-1-yl]-2-cyclohexyl-ethoxy}-3,5-difluoro-benzoic acid], the IC50 was 10 nM.

Consider `CC(C)(Oc1ccc(OCC(C2CCCCC2)n2c(-c3ccc(Cl)cc3)nc3cc(F)c(F)cc32)cc1)C(=O)O` (stereo not shown) [Example 90, 2-(4-{2-[2-(4-Chloro-phenyl)-5,6-difluoro-benzoimidazol-1-yl]-2-cyclohexyl-ethoxy}-phenoxy)-2-methyl-propionic acid], for which the IC50 is 200 nM.

As for `Cc1cc(OCC(C2CCCCC2)n2c(-c3ccc(Cl)cc3)nc3cc(F)c(F)cc32)ccc1OCC(=O)O` (stereo not shown) [Example 92, (4-{2-[2-(4-Chloro-phenyl)-5,6-difluoro-benzoimidazol-1-yl]-2-cyclohexyl-ethoxy}-2-methyl-phenoxy)-acetic acid], the concentration for half-maximal inhibition (IC50) turned out to be 90 nM.

In the case of `Cc1c(OCC(C2CCCCC2)n2c(-c3ccc(Cl)cc3)nc3cc(F)c(F)cc32)ccc(OC(C)(C)C(=O)O)c1C` (stereo not shown) [Example 93, 2-(4-{2-[2-(4-Chloro-phenyl)-5,6-difluoro-benzoimidazol-1-yl]-2-cyclohexyl-ethoxy}-2,3-dimethyl-phenoxy)-2-methyl-propionic acid], the concentration for half-maximal inhibition (IC50) amounted to 300 nM.

With `CC(C)(Oc1ccc(OCC(C2CCCCC2)n2c(-c3ccc(Cl)cc3)nc3cc(F)c(F)cc32)c(F)c1)C(=O)O` (stereo not shown) [Example 94, 2-(4-{2-[2-(4-Chloro-phenyl)-5,6-difluoro-benzoimidazol-1-yl]-2-cyclohexyl-ethoxy}-3-fluoro-phenoxy)-2-methyl-propionic acid], the IC50 turned out to be 100 nM.

With `CC(C)(Oc1cccc(OCC(C2CCCCC2)n2c(-c3ccc(Cl)cc3)nc3cc(F)c(F)cc32)c1)C(=O)O` (stereo not shown) [Example 95, 2-(3-{2-[2-(4-Chloro-phenyl)-5,6-difluoro-benzoimidazol-1-yl]-2-cyclohexyl-ethoxy}-phenoxy)-2-methyl-propionic acid], the 50% inhibitory concentration (IC50) is 600 nM.

For `COc1ccc(-c2nc3cc(F)c(F)cc3n2C(COc2c(F)cc(C(=O)O)cc2F)C2CCCCC2)c(OC)n1` (stereo not shown) [Example 96, 4-{2-Cyclohexyl-2-[2-(2,6-dimethoxy-pyridin-3-yl)-56-difluoro-benzoimidazol-1-yl]-ethoxy}-3,5-difluoro-benzoic acid], the IC50 was determined as 2 nM.

Turning to `COc1ccc(-c2nc3cc(F)c(F)cc3n2C(COc2c(C)cc(-c3nnn[nH]3)cc2C)C2CCCCC2)c(OC)n1` (stereo not shown) [Example 99, 1-{1-cyclohexyl-2-[2,6-dimethyl-4-(1H-tetrazol-5-yl)-phenoxy]-ethyl}-2-(2,6-dimethoxy-pyridin-3-yl)-5,6-difluoro-1H-benzoimidazole], the IC50 worked out at 2 nM.

Consider `O=C(O)c1cc(F)c(OCC(C2CCCCC2)n2c(-c3ccc(Cl)cc3)nc3ccccc32)c(F)c1` (stereo not shown) [Example 102, 4-{2-[2-(4-Chloro-phenyl)-benzoimidazol-1-yl]-2-cyclohexyl-ethoxy}-3,5-difluoro-benzoic acid], for which the 50% inhibitory concentration (IC50) was 30 nM.

With `Cc1cc(C(=O)O)cc(C)c1OCC(C1CCCCC1)n1c(-c2ccc(Cl)cc2)nc2ccccc21` (stereo not shown) [Example 105, 4-{2-[2-(4-Chloro-phenyl)-benzoimidazol-1-yl]-2-cyclohexyl-ethoxy}-3,5-dimethyl-benzoic acid], the half-maximal inhibitory concentration (IC50) turned out to be 40 nM.

Regarding `O=C(O)c1cc(F)c(OCC(C2CCCCC2)n2c(-c3ccc(Cl)cc3)nc3ccccc32)c(Cl)c1` (stereo not shown) [Example 108, 3-Chloro-4-{2-[2-(4-chloro-phenyl)-benzoimidazol-1-yl]-2-cyclohexyl-ethoxy}-5-fluoro-benzoic acid], the IC50 came out at 10 nM.

Staying with this assay, now noted: h-IC50 Binding, 40 nM GST-FXR LBD on SPA beads, test compound 6×10^−9 M to 2.5×10^−5 M.
The compound `O=C(O)COc1ccc(OCC(C2CCCCC2)n2c(-c3ccc(Cl)cc3)nc3cc(F)c(F)cc32)cc1` (stereo not shown) [Example 91, (4-{2-[2-(4-Chloro-phenyl)-5,6-difluoro-benzoimidazol-1-yl]-2-cyclohexyl-ethoxy}-phenoxy)-acetic acid] yielded a half-inhibitory concentration (IC50) of 60 nM.

For the origin of these results see patent publication US8088930B2, “Benzimidazole derivatives” (Hoffmann-La Roche Inc., priority 2008, dated 2012).
